In ChEMBL document CHEMBL1201862, “PubChem BioAssay data set” (2004):
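Where inhibition never reached the appropriate level, the endpoint shown equals the highest concentration tested. Otherwise, values were interpolated linearly from a five-concentration, 48-hour dose response in 96-well plates. GI50 marks 50% less growth.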 The source made the active and inactive calls. No stated cut-off is given here; in the data, active = GI50 up to about 1.1 µM and inactive = higher.

Legend:
Assay in all cases: NCI anticancer screen, dose series, 48 h
[1] = tested on: Malme-3M
[2] = tested on: HCT-15
[3] = tested on: NCI-H460
[4] = tested on: NCI-H23
[5] = tested on: NCI-H522
[6] = tested on: HCT-116
[7] = tested on: MDA-MB-435
[8] = tested on: COLO 205
[9] = tested on: KM12
[10] = tested on: A549
[11] = tested on: SK-MEL-28
[12] = tested on: HCC 2998
[13] = tested on: ACHN
[14] = tested on: EKVX
[15] = tested on: OVCAR-8
[16] = tested on: HOP-92
[17] = tested on: SW-620
[18] = tested on: NCI-H226
[19] = tested on: SN12C
[20] = tested on: LOX IMVI

SMILES	GI50 [1]	GI50 [2] [µM]	GI50 [3]	GI50 [4]	GI50 [5]	GI50 [6]	GI50 [7]	GI50 [8]	GI50 [9]	GI50 [10]	GI50 [11]	GI50 [12]	GI50 [13]	GI50 [14]	GI50 [15]	GI50 [16]	GI50 [17]	GI50 [18]	GI50 [19]	GI50 [20]
CCOC(=O)CSC1NC(C(=O)OC)CC1OC (stereo unspecified)	> 100 µM (inactive)	> 100	67.6 µM (inactive)	> 100 µM (inactive)	> 100 µM (inactive)	> 100 µM (inactive)	> 100 µM (inactive)	> 100 µM (inactive)	> 100 µM (inactive)	> 100 µM (inactive)	> 100 µM (inactive)	> 100 µM (inactive)	> 100 µM (inactive)	> 100 µM (inactive)	> 100 µM (inactive)	> 100 µM (inactive)	> 100 µM (inactive)			
Nc1ncn2c(n1)nc1ccccc12	> 100 µM (inactive)	> 100	> 100 µM (inactive)	> 100 µM (inactive)	> 100 µM (inactive)	> 100 µM (inactive)	> 100 µM (inactive)	> 100 µM (inactive)	> 100 µM (inactive)	> 100 µM (inactive)	> 100 µM (inactive)		> 100 µM (inactive)	54.8 µM (inactive)	> 100 µM (inactive)	37.2 µM (inactive)	> 100 µM (inactive)	> 100 µM (inactive)	> 100 µM (inactive)	
CC1(C)[C@H]2CC[C@@]13C(=O)N1C(=O)O[C@@H]([C@H]1Cl)C(Cl)(COCc1ccccc1)C(=O)OCCO[C@H]3C2 (stereo partly specified)	60.8 µM (inactive)	40.8	53.6 µM (inactive)	40.9 µM (inactive)	34.8 µM (inactive)	37.8 µM (inactive)	42.8 µM (inactive)	18 µM (inactive)	63.7 µM (inactive)	54.3 µM (inactive)	> 100 µM (inactive)	57.3 µM (inactive)	70.6 µM (inactive)	95.9 µM (inactive)	> 100 µM (inactive)	> 100 µM (inactive)	66.8 µM (inactive)			74 µM (inactive)
O=[N+]([O-])c1ccc(C(c2c[nH]c3ccccc23)c2c[nH]c3ccccc23)cc1	15.5 µM (inactive)	11	3.57 µM (inactive)	7.1 µM (inactive)			13.3 µM (inactive)	8.13 µM (inactive)	6.24 µM (inactive)	6.82 µM (inactive)	18.5 µM (inactive)	13.2 µM (inactive)	8.05 µM (inactive)	19.4 µM (inactive)	14.7 µM (inactive)		12.4 µM (inactive)	10.7 µM (inactive)	14.4 µM (inactive)	11.1 µM (inactive)
Cn1c(N)c(Cc2ccc(Cl)cc2)c(=O)[nH]c1=O	> 100 µM (inactive)	> 100		> 100 µM (inactive)	> 100 µM (inactive)	> 100 µM (inactive)	> 100 µM (inactive)	> 100 µM (inactive)	> 100 µM (inactive)	> 100 µM (inactive)	> 100 µM (inactive)		> 100 µM (inactive)	> 100 µM (inactive)	> 100 µM (inactive)	89.7 µM (inactive)	> 100 µM (inactive)	> 100 µM (inactive)	> 100 µM (inactive)	> 100 µM (inactive)
CN(C)/N=N/c1nc2c(c(=O)n(C)c(=O)n2C)n1CC(O)CO (stereo unspecified)	> 100 µM (inactive)	> 100	> 100 µM (inactive)	> 100 µM (inactive)	> 100 µM (inactive)	> 100 µM (inactive)	> 100 µM (inactive)	> 100 µM (inactive)	> 100 µM (inactive)	> 100 µM (inactive)	> 100 µM (inactive)	> 100 µM (inactive)	> 100 µM (inactive)	> 100 µM (inactive)	> 100 µM (inactive)		> 100 µM (inactive)	> 100 µM (inactive)	> 100 µM (inactive)	
C=CCC1(OCc2ccccc2)C(=O)C(=O)OC1C1COC(C)(C)O1 (stereo unspecified)	> 100 µM (inactive)	> 100	> 100 µM (inactive)	> 100 µM (inactive)	> 100 µM (inactive)	> 100 µM (inactive)	> 100 µM (inactive)	> 100 µM (inactive)	> 100 µM (inactive)	> 100 µM (inactive)	> 100 µM (inactive)	> 100 µM (inactive)	> 100 µM (inactive)	> 100 µM (inactive)	> 100 µM (inactive)		> 100 µM (inactive)	> 100 µM (inactive)	> 100 µM (inactive)	> 100 µM (inactive)
Cc1nnc2c3c(-c4ccccc4)c(-c4ccccc4)oc3nc(N(C)C)n12		23.7		54.5 µM (inactive)	97.9 µM (inactive)	24.8 µM (inactive)	36.5 µM (inactive)	64.4 µM (inactive)	26.7 µM (inactive)	37.2 µM (inactive)	72.1 µM (inactive)	29.4 µM (inactive)	64.6 µM (inactive)	> 100 µM (inactive)	78.9 µM (inactive)	> 100 µM (inactive)	44.6 µM (inactive)	96.6 µM (inactive)		39.4 µM (inactive)
O=C(Oc1ccc(OC(Oc2ccccc2)c2ccccc2)cc1)c1ccccc1 (stereo unspecified)	13.2 µM (inactive)	> 10	> 63.2 µM (inactive)	6.21 µM (inactive)	49.2 µM (inactive)	16.1 µM (inactive)	24.6 µM (inactive)	> 31.6 µM (inactive)	18.7 µM (inactive)	21.1 µM (inactive)	17.1 µM (inactive)	17.6 µM (inactive)	26.7 µM (inactive)	29.7 µM (inactive)	> 31.6 µM (inactive)		> 31.6 µM (inactive)	> 31.6 µM (inactive)	28.8 µM (inactive)	22.1 µM (inactive)
COc1cc2c(cc1OCCCCCOc1cc3c(cc1OC)C(=O)N1CCC[C@H]1CN3)N=C[C@@H]1CCCN1C2=O	5.93 µM (inactive)	13.7	3.77 µM (inactive)	4.8 µM (inactive)	1.36 µM (inactive)	4.85 µM (inactive)	6.85 µM (inactive)	4.37 µM (inactive)	2.92 µM (inactive)	5.46 µM (inactive)	11.2 µM (inactive)		4.03 µM (inactive)	39.6 µM (inactive)	2.58 µM (inactive)	17.2 µM (inactive)	4.25 µM (inactive)	2.48 µM (inactive)	0.509 µM (active)	1.34 µM (inactive)
Nc1c(-c2nc3ccccc3s2)c2ccc([N+](=O)[O-])cc2c(=O)n1-c1cccc(C(=O)O)c1		27.4	27 µM (inactive)	25.4 µM (inactive)	37.8 µM (inactive)	21.2 µM (inactive)	35.6 µM (inactive)	63.5 µM (inactive)	40.6 µM (inactive)	34.9 µM (inactive)	21.4 µM (inactive)	62.5 µM (inactive)	33 µM (inactive)		27.7 µM (inactive)	24.2 µM (inactive)	29.1 µM (inactive)	23 µM (inactive)	30.3 µM (inactive)	31.8 µM (inactive)
CC1(C)O[C@@H]2[C@@H](COC(C)(C)O[C@H]2C2SCCCS2)O1	> 100 µM (inactive)	> 100	> 100 µM (inactive)	> 100 µM (inactive)	> 100 µM (inactive)	> 100 µM (inactive)	> 100 µM (inactive)	> 100 µM (inactive)	> 100 µM (inactive)	> 100 µM (inactive)	> 100 µM (inactive)	> 100 µM (inactive)	> 100 µM (inactive)		> 100 µM (inactive)	92.7 µM (inactive)	> 100 µM (inactive)		> 100 µM (inactive)	
COc1ccc(OC)c2c1ccc1c(C)c3ccccc3c(C)c12	> 100 µM (inactive)	18	71.9 µM (inactive)	89.5 µM (inactive)	75.9 µM (inactive)	67.9 µM (inactive)	> 100 µM (inactive)				> 100 µM (inactive)	15.8 µM (inactive)	> 100 µM (inactive)		> 100 µM (inactive)			> 100 µM (inactive)	22.9 µM (inactive)	60.1 µM (inactive)
C[C@H]1C(=O)C2=C[C@H]1CCC(=O)[C@]1(C)CCCC(C)(C)[C@H]1C[C@H]2O	20.6 µM (inactive)	14.3	21.9 µM (inactive)	21.8 µM (inactive)	0.986 µM (active)	31.7 µM (inactive)	31.2 µM (inactive)	14.3 µM (inactive)	19 µM (inactive)	19 µM (inactive)	40.1 µM (inactive)		17.3 µM (inactive)	13.1 µM (inactive)	17.5 µM (inactive)	24.3 µM (inactive)	14.9 µM (inactive)	19.7 µM (inactive)	26.9 µM (inactive)	17.3 µM (inactive)
CCOP(=O)(OCC)/C(C#N)=C/c1ccc(-c2cc(C(F)(F)F)cc(C(F)(F)F)c2)o1		6.38	6.38 µM (inactive)	13 µM (inactive)	10.4 µM (inactive)	13.2 µM (inactive)	14 µM (inactive)	12.4 µM (inactive)		14.4 µM (inactive)	16.9 µM (inactive)	8.45 µM (inactive)	12.7 µM (inactive)	20.7 µM (inactive)	16.2 µM (inactive)	8.41 µM (inactive)	14.9 µM (inactive)	14.8 µM (inactive)	15.1 µM (inactive)	3.34 µM (inactive)
